Reference: patent publication US8455516B2, “HIV-1 fusion inhibitors and methods” (Touro University, priority 2010, dated 2013)
Where two headings read alike, the source gives them in different places.

What was measured:
TZM-bl cells = test: cytotoxicity, luciferase expression-based test; conditions: toxicity to TZM-bl cells, 24 hour exposure
[1] = target: T1, gp41 hydrophobic pocket (receptor Fe(env2.0)3) (Human immunodeficiency virus type 1 group M subtype B, UniProt P04578); test: competitive inhibition fluorescence binding assay for the gp41 hydrophobic pocket; design: species or system HIV-1; conditions: binding constant, hydrophobic pocket of gp41
T1 construct: utilizing a receptor Fe(env2.0)3 selective for the hydrophobic pocket
Method: Compounds were validated for binding activity with a biochemical assay, and for biological activity with a cell-cell fusion (CCF) assay.
Association between the C-peptide and receptor leads to fluorescence quenching, which is reversed in the presence of an inhibitor. […] The assay is quantitative and provides the binding constant (KI) of the inhibitor.
Toxicity of the compounds to TZM-bl cells was also tested to ensure that the luminescence decrease was not simply due to cell death (CC50, toxicity).

[2] = cytotoxicity, luciferase expression-based test; conditions: human, TZM-bl cells
[3] = test system: Pseudovirus HIV-1 BAL (CCR5-tropic strain); test: microbe, parasite or virus in culture; conditions: MAGI
[4] = test system: Pseudovirus HIV-1 BAL (CCR5-tropic strain)
in vitro = conditions: human
HIV-1 IIIB = test: HIV-1 viral infectivity inhibition, IIIB; type: cell-based; conditions: Human immunodeficiency virus 1, IIIB
Method: (§1) The ability of the compounds to inhibit HIV-1 infectivity was assessed using standard assays as reported in the literature. See: 1) Desmezieres, E.; Gupta, N.; Vassell, R.; He, Y.; Peden, K.; Sirota, L.; Yang, Z.; Wingfield, P.; Weiss, C. D. J Virol 2005, 79, 4774, and 2) Lackman-Smith, C.; Osterling, C.; Luckenbaugh, K.; Mankowski, M.; Snyder, B.; Lewis, G.; Paull, J.; Profy, A.; Ptak, R. G.; Buckheit, R. W., Jr.; Watson, K. M.; Cummins, J. E.; Sanders-Beer, B. E. Antimicrob Agents Chemother 2008.

HIV-1 HXB2 = test: HIV-1 viral infectivity inhibition, HXB2; type: cell-based; conditions: Human immunodeficiency virus 1, HXB2
Method: as §1

MAGI cells = conditions: human
HIV-1 Ba-L = test: HIV-1 viral infectivity inhibition, Ba-L; type: cell-based; conditions: Human immunodeficiency virus 1, BAL
Method: as §1

O=C(O)c1cccc(Cn2ccc3cc(-c4cccc(C(=O)O)c4)ccc32)c1 [Compound I-13, 3-(1-(3-carboxybenzyl)-1H-indol-5-yl)benzoic acid]
CC50 (TZM-bl cells): > 400 µM

O=C(O)c1cccc(Cc2ccc3ccn(-c4cccc(C(=O)O)c4)c3c2)c1 [Compound I-6, 3-(6-(3-carboxybenzyl)-1H-indol-1-yl)benzoic acid]
Ki [1]: 45 ± 5 µM
CC50 (TZM-bl cells): > 400 µM

COc1ccc(C(=O)O)cc1Cc1ccc2cc[nH]c2c1 [Compound I-17, 3-((1H-indol-6-yl)methyl)-4-methoxybenzoic acid]
CC50 at 24 h [2]: > 100 µM

O=C(O)c1cccc(Cc2ccc3c(ccn3Cc3cccc(C(=O)O)c3)c2)c1 [Compound I-10, 3-((1-(3-carboxybenzyl)-1H-indol-5-yl)methyl)benzoic acid]
CC50 (TZM-bl cells): > 400 µM

COc1ccc(COc2cccc(-c3ccc4ccn(Cc5cccc(C(=O)OCc6cccc(C(=O)O)c6)c5)c4c3)c2)cc1 [Compound I-22, 3-((3-((6-(3-(4-methoxybenzyloxy)phenyl)-1H-indol-1-yl)methyl)benzoyloxy)methyl)benzoic acid]
IC50 ([3]; 2% Serum): 13.8 µM
IC90 ([3]; 2% Serum): 31.1 µM
IC50 ([3]; 5% Serum): 18.7 µM
IC90 ([3]; 5% Serum): 76.4 µM
IC50 ([3]; 10% Serum): 22.6 µM
IC90 ([3]; 10% Serum): 91.7 µM
TI (TC50/IC50) ([4]; 2% Serum): 4.27
TI (TC50/IC50) ([4]; 5% Serum): >5.35
TI (TC50/IC50) ([4]; 10% Serum): >4.42
CC50 (in vitro): > 100 µM
CC50 at 24 h [2]: > 100 µM

O=C(O)c1cccc(COc2cccc(-c3ccc4ccn(Cc5cccc(C(=O)O)c5)c4c3)c2)c1 [Compound I-21, 3-((3-(1-(3-carboxybenzyl)-1H-indol-6-yl)phenoxy)methyl)benzoic acid]
CC50 at 24 h [2]: > 100 µM

O=C(O)c1cccc(Cc2ccc3[nH]ccc3c2)c1 [Compound I-9, 3-((1H-indol-5-yl)methyl)benzoic acid]
CC50 at 24 h [2]: > 400 µM

O=C(O)c1ccc(O)c(Cc2ccc3cc[nH]c3c2)c1 [Compound I-19, 3-((1H-indol-6-yl)methyl)-4-hydroxybenzoic acid]
CC50 at 24 h [2]: > 100 µM

O=C(O)C(=O)c1c[nH]c2cc(Cc3cccc(C(=O)O)c3)ccc12 [Compound I-3, 3-((3-(carboxycarbonyl)-1H-indol-6-yl)methyl)benzoic acid]
CC50 at 24 h [2]: > 100 µM

O=C(O)c1cccc(Cc2ccc3ccn(Cn4ccc5ccc(Cc6cccc(C(=O)O)c6)cc54)c3c2)c1 [Compound I-5, 3,3′-(1,1′-methylenebis(1H-indole-6,1-diyl))bis(methylene)dibenzoic acid]
IC50 ([3]; 2% Serum): 14.6 µM
IC90 ([3]; 2% Serum): 71.2 µM
IC50 ([3]; 5% Serum): 49.6 µM
IC90 ([3]; 5% Serum): 93.6 µM
IC50 ([3]; 10% Serum): 92.1 µM
IC90 ([3]; 10% Serum): > 100 µM
IC50 (HIV-1 IIIB): ≥ 100 µM
TI (TC50/IC50) ([4]; 2% Serum): >6.85
TI (TC50/IC50) ([4]; 5% Serum): >2.02
TI (TC50/IC50) ([4]; 10% Serum): >1.09
CC50 (in vitro): > 100 µM
IC50 (HIV-1 HXB2): 17 µM
CC50 (MAGI cells): > 100 µM
IC50 (HIV-1 Ba-L): 92.1 µM
CC50 at 24 h [2]: > 100 µM

O=[N+]([O-])c1cccc(Cc2ccc3cc[nH]c3c2)c1 [Compound I-15, 6-(3-nitrobenzyl)-1H-indole]
CC50 at 24 h [2]: ~63 µM

O=C(O)c1ccc([N+](=O)[O-])c(Cc2ccc3cc[nH]c3c2)c1 [Compound I-16, 3-((1H-indol-6-yl)methyl)-4-nitrobenzoic acid]
CC50 at 24 h [2]: > 100 µM

COc1ccc(Cn2ccc3ccc(Cc4cccc(C(=O)O)c4)cc32)cc1 [Compound I-2, 3-((1-(4-methoxybenzyl)-1H-indol-6-yl)methyl)benzoic acid]
CC50 (TZM-bl cells): 100 µM

O=C(O)c1cccc(Cn2ccc3ccc(-c4cccc(O)c4)cc32)c1 [Compound I-14, 3-((6-(3-hydroxyphenyl)-1H-indol-1-yl)methyl)benzoic acid]
CC50 at 24 h [2]: > 100 µM

COc1cccc(-n2ccc3ccc(Cc4cccc(C(=O)O)c4)cc32)c1 [Compound I-7, 3-((1-(3-methoxyphenyl)-1H-indol-6-yl)methyl)benzoic acid]
IC50 ([3]; 2% Serum): 15.8 µM
IC90 ([3]; 2% Serum): > 100 µM
IC50 ([3]; 5% Serum): 34 µM
IC90 ([3]; 5% Serum): > 100 µM
IC50 ([3]; 10% Serum): 67.7 µM
IC90 ([3]; 10% Serum): > 100 µM
IC50 (HIV-1 IIIB): 61.5 µM
TI (TC50/IC50) ([4]; 2% Serum): >6.33
TI (TC50/IC50) ([4]; 5% Serum): >2.94
TI (TC50/IC50) ([4]; 10% Serum): >1.48
CC50 (in vitro): > 100 µM
CC50 (MAGI cells): > 100 µM
IC50 (HIV-1 Ba-L): 67.7 µM
CC50 at 24 h [2]: > 100 µM

O=C(O)c1cccc(Cc2ccc3ccn(Cc4cccc(C(=O)O)c4)c3c2)c1 [Compound I-4, 3-((1-(3-(carboxy)benzyl)-1H-indol-6-yl)methyl)benzoic acid]
CC50 at 24 h [2]: > 200 µM

O=C(O)c1cccc(Cn2ccc3ccc(-c4ccc5cc(Cl)ccc5n4)cc32)c1 [II-1, 3-((6-(6-chloroquinolin-2-yl)-1H-indol-1-yl)methyl)benzoic acid]
CC50 at 24 h [2]: 93 µM

COc1ccc(Cn2ccc3ccc(-c4ccc5ccn(Cc6cccc(C(=O)O)c6)c5c4)cc32)cc1 [II-3, 3-((1′-(4-methoxybenzyl)-1H,1′H-6,6′-biindol-1-yl)methyl)benzoic acid]
CC50 at 24 h [2]: 18.9 ± 2.9 µM

O=C(O)c1cccc(-c2ccc3cc[nH]c3c2)c1 [Compound I-12, 3-(1H-indol-6-yl)benzoic acid]
CC50 at 24 h [2]: > 100 µM

O=C(O)c1cccc(Cc2ccc3cc[nH]c3c2)c1 [Compound I-1, 3-((1H-indol-6-yl)methyl)benzoic acid]
IC50 ([3]; 2% Serum): 15.5 µM
IC90 ([3]; 2% Serum): 58 µM
IC50 ([3]; 5% Serum): 34.8 µM
IC90 ([3]; 5% Serum): 89.4 µM
IC50 ([3]; 10% Serum): 44.7 µM
IC90 ([3]; 10% Serum): > 100 µM
IC50 (HIV-1 IIIB): 99.9 µM
TI (TC50/IC50) ([4]; 2% Serum): >6.45
TI (TC50/IC50) ([4]; 5% Serum): >2.87
TI (TC50/IC50) ([4]; 10% Serum): >2.24
CC50 (in vitro): > 100 µM
CC50 (MAGI cells): > 100 µM
IC50 (HIV-1 Ba-L): 44.7 µM
CC50 at 24 h [2]: > 500 µM

COc1cc(Cc2ccc3cc[nH]c3c2)cc(C(=O)O)c1 [Compound I-20, 3-((1H-indol-6-yl)methyl)-5-methoxybenzoic acid]
CC50 at 24 h [2]: > 100 µM

O=C(O)c1cc(O)cc(Cc2ccc3cc[nH]c3c2)c1 [Compound I-18, 3-((1H-indol-6-yl)methyl)-5-hydroxybenzoic acid]
CC50 at 24 h [2]: > 100 µM

O=C(O)c1cccc(Cn2ccc3cc(-c4ccc5cc(Cl)ccc5n4)ccc32)c1 [II-2, 3-((5-(6-chloroquinolin-2-yl)-1H-indol-1-yl)methyl)benzoic acid]
CC50 at 24 h [2]: 156 µM

COc1cccc(-c2ccc3ccn(Cc4cccc(C(=O)O)c4)c3c2)c1 [Compound I-11, 3-((6-(3-methoxyphenyl)-1H-indol-1-yl)methyl)benzoic acid]
IC50 ([3]; 2% Serum): 18 µM
IC90 ([3]; 2% Serum): > 100 µM
IC50 ([3]; 5% Serum): 36.6 µM
IC90 ([3]; 5% Serum): > 100 µM
IC50 ([3]; 10% Serum): 47.4 µM
IC90 ([3]; 10% Serum): > 100 µM
IC50 (HIV-1 IIIB): 57.4 µM
TI (TC50/IC50) ([4]; 2% Serum): 3.75
TI (TC50/IC50) ([4]; 5% Serum): >2.73
TI (TC50/IC50) ([4]; 10% Serum): >2.11
CC50 (in vitro): > 100 µM
IC50 (HIV-1 Ba-L): 47.4 µM
CC50 at 24 h [2]: > 100 µM

O=Cc1c[nH]c2cc(Cc3cccc(C(=O)O)c3)ccc12 [Compound I-8, 3-((3-formyl-1H-indol-6-yl)methyl)benzoic acid]
CC50 at 24 h [2]: > 100 µM
